Measurements as given in patent US20160355530A1, “HEPATITIS C INHIBITORS AND USES THEREOF” (AbbVie Inc., priority 2010, published 2016).
pEC50, pIC50: −log10 of the molar value. Where two headings read alike, the source gives them in different places.

Experiments:
[1] = target: T1, HCV NS5B polymerase 1a-H77 (Hepatitis C virus genotype 1a, UniProt P27958); assay: biochemical; design: species or system HCV genotype 1a; conditions: enzyme, strain 1a H77; read-out: HCV Polymerase Strain 1a H77 IC50
T1 construct: six-histidine tag; made in house; host or cells: E. coli
In short: (§1)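 Incorporation of [3H]UTP (0.284 μM), alongside 20 μM each CTP and ATP, into RNA copied from a 5 nM 2.1 kb genotype 1b negative-strand template was measured after 3 h at 30° C using purified His-tagged NS5B truncated at residue 570. Product was spermine-precipitated, filtered and scintillation-counted; nonlinear regression gave IC50.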

[2] = target: T2, HCV NS5B polymerase 1a-H77-C316Y (Hepatitis C virus genotype 1a, UniProt P27958, C2736Y); assay: biochemical; design: species or system HCV genotype 1a
T2 construct: six-histidine tag; made in house; host or cells: E. coli
In short: as §1

[3] = test system: HCV NS5B polymerase 1a-H77-C316Y; assay: biochemical; design: species or system HCV genotype 1a; conditions: ratio of enzyme IC50s, 1a H77-C316Y / 1a H77
In short: as §1

[4] = target: T3, HCV NS5B polymerase 1b BK strain (Hepatitis C virus genotype 1b, UniProt P26663); assay: HCV NS5B polymerase enzymatic inhibition assay, strain 1b BK; assay type: biochemical; conditions: enzyme, strain 1b BK; read-out: HCV Polymerase Strain 1b BK IC50
T3 construct: six-histidine tag; made in house; host or cells: E. coli
In short: as §1

[5] = test system: HCV 1a-H77 subgenomic replicon; assay: microbe, parasite or virus in culture; assay type: cell-based, HCV genotype 1a; conditions: Hepatitis C virus, stable replicon
[6] = test system: HCV 1b-BB7 subgenomic replicon; assay: microbe, parasite or virus in culture; assay type: cell-based, HCV genotype 1b; conditions: Hepatitis C virus, stable replicon
[7] = test system: chimeric replicon with 2a-J6CF-derived NS5B; assay: microbe, parasite or virus in culture; assay type: cell-based, HCV genotype 2a; conditions: Hepatitis C virus, read-out: 2a chimera 5% FBS EC50
[8] = test system: chimeric replicon with genotype 2b NS5B; assay: microbe, parasite or virus in culture; assay type: cell-based, HCV genotype 2b; conditions: Hepatitis C virus, read-out: 2b chimera 5% FBS EC50
[9] = test system: chimeric replicon with genotype 3a NS5B; assay: microbe, parasite or virus in culture; assay type: cell-based, HCV genotype 3a; conditions: Hepatitis C virus, read-out: 3a chimera 5% FBS EC50
[10] = test system: chimeric replicon with genotype 4a NS5B; assay: microbe, parasite or virus in culture; assay type: cell-based, HCV genotype 4a; conditions: Hepatitis C virus, read-out: 4a chimera 5% FBS EC50
[11] = test system: HCV 1a-H77 transient subgenomic replicon in Huh-7 derived cell line; assay: microbe, parasite or virus in culture; assay type: cell-based, HCV genotype 1a; conditions: Hepatitis C virus, Huh-7; transient replicon, 5% FBS; read-out: Transient Replicon 1a H77 5% FBS EC50
In short: (§2)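 Subgenomic replicon RNA (no Neo gene) electroporated into Huh-7-derived cells, plated at 5×10^3 cells/well; a 4 h plate gauged transfection efficiency. Cells exposed to 3-fold compound dilutions (0.5% DMSO) for 4 days at 37° C, then lysed for luciferase readout; EC50 calculated.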

[12] = test system: HCV 1a-H77-C316Y transient subgenomic replicon in Huh-7 derived cell line; assay: microbe, parasite or virus in culture; assay type: cell-based, HCV genotype 1a; conditions: for pEC50: Hepatitis C virus, Huh-7, read-out: Transient Replicon 1a H77-C316Y 5% FBS EC50; for Transient Replicon Fold Resistance C316Y/1a: ratio of transient replicon EC50s, C316Y / 1a H77
In short: as §2

[13] = 5% FBS, absence of human plasma, read-out: Stable Replicon 1a H77 5% FBS EC50
[14] = strain 1a H77, 5% FBS + 40% human plasma, read-out: 1a H77 5% FBS + 40% Human Plasma EC50
[15] = strain 1a H77, 5% FBS, no human plasma, read-out: 1a H77 5% FBS EC50
[16] = strain 1a H77, 5% FBS, read-out: 1a H77 5% FBS EC50
[17] = strain 1b BB7, 5% FBS + 40% human plasma, read-out: 1b BB7 5% FBS + 40% Human Plasma EC50
[18] = strain 1b BB7, 5% FBS, no human plasma, read-out: 1b BB7 5% FBS EC50
[19] = strain 1b BB7, 5% FBS, read-out: 1b BB7 5% FBS EC50

T2 sequence (P27958 2421-2990 C2736Y): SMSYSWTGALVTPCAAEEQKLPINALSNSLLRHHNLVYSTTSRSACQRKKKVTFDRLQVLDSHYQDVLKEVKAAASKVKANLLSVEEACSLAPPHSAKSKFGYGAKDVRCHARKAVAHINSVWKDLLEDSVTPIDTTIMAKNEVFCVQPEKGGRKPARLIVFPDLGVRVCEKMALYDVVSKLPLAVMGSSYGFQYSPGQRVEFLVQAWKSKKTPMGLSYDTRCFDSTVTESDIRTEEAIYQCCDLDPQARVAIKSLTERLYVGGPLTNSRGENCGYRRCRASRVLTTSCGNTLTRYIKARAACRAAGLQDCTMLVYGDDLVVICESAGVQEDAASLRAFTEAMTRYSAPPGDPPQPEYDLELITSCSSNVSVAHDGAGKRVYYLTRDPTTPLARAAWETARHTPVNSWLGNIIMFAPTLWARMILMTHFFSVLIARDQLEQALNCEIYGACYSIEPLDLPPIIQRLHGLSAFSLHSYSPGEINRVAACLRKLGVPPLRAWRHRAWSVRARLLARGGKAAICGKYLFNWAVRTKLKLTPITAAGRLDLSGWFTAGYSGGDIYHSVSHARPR
T1 sequence (P27958 2421-2990): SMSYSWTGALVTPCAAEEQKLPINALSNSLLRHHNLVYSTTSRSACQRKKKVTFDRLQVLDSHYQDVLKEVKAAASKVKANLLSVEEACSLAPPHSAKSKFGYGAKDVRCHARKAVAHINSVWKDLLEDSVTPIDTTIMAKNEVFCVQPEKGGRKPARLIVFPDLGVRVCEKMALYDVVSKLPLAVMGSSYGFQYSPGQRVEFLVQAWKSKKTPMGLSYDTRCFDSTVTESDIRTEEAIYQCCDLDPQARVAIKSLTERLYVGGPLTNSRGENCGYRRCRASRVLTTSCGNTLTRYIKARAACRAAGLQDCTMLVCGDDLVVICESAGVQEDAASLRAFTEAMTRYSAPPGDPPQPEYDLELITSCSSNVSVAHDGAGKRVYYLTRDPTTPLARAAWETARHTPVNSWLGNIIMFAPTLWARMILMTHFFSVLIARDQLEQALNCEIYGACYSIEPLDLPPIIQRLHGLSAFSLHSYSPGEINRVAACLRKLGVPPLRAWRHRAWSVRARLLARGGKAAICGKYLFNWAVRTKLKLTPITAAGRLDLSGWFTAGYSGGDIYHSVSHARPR
T3 sequence (P26663 2420-2989): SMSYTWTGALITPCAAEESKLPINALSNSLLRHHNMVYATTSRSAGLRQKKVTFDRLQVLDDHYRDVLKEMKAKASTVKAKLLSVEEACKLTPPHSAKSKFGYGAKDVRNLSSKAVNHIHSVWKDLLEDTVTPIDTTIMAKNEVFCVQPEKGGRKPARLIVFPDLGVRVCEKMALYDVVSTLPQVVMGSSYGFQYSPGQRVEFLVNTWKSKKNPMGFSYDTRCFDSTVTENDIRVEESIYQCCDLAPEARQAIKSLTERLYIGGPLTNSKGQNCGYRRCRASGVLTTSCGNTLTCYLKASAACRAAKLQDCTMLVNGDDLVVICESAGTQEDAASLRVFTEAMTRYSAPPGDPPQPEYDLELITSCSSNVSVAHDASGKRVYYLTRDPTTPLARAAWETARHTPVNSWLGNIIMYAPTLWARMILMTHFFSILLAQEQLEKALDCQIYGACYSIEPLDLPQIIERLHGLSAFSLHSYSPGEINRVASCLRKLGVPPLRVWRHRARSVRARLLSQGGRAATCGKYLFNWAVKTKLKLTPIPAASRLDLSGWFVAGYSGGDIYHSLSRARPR

| Compound | pIC50 [1] | pIC50 [2] | C316Y/1a Fold Resistance [3] [fold] | pIC50 [4] | pEC50 [5, 13] | pEC50 [5, 14] | pEC50 [5, 15] | pEC50 [5, 16] | pEC50 [6, 17] | pEC50 [6, 18] | pEC50 [6, 19] | pEC50 [7] | pEC50 [8] | pEC50 [9] | pEC50 [10] | pEC50 [11] | pEC50 [12] | Transient Replicon Fold Resistance C316Y/1a [12] [fold] |
| --- | --- | --- | --- | --- | --- | --- | --- | --- | --- | --- | --- | --- | --- | --- | --- | --- | --- | --- |
| CS(=O)(=O)N(CCCN1CCOCC1)c1cc2oc(-c3ccc(F)cc3)c(C3=NOCCN3)c2cc1C1CC1 [Example 126, N-[5-cyclopropyl-3-(5,6-dihydro-4H-1,2,4-oxadiazin-3-yl)-2-(4-fluorophenyl)-1-benzofuran-6-yl]-N-[3-(morpholin-4-yl)propyl]methanesulfonamide] | 7.67 | 7.04 | 4 | 6.95 | 7.60 | 6.59 | 7.60 | 7.60 | 6.42 | 7.52 | 7.52 | 6.46 | 6.34 | 7.15 | 6.44 | 7.47 | 6.59 | 8 |
| CS(=O)(=O)N(CCCO)c1cc2oc(-c3ccc(F)cc3)c(C3=NOCCN3)c2cc1C1CC1 [Example 137, N-[5-cyclopropyl-3-(5,6-dihydro-4H-1,2,4-oxadiazin-3-yl)-2-(4-fluorophenyl)-1-benzofuran-6-yl]-N-(3-hydroxypropyl)methanesulfonamide] | 8.38 | 7.41 | 9 | 7.10 | 7.82 | 7.23 | 7.82 | 7.82 | 6.95 | 7.77 | 7.77 | 6.74 | 6.67 | 7.48 | 6.76 | 8.00 | 6.97 | 11 |
| COc1ccc(CN(c2cc3oc(-c4ccc(F)cc4)c(C4=NOCN4)c3cc2C2CC2)S(C)(=O)=O)cc1 [Example 145, N-[5-cyclopropyl-3-(4,5-dihydro-1,2,4-oxadiazol-3-yl)-2-(4-fluorophenyl)-1-benzofuran-6-yl]-N-(4-methoxybenzyl)methanesulfonamide] | 8.22 | 5.70 | 333 | 7.46 | 6.87 | 6.00 | 6.87 | 6.87 | 6.00 | 7.10 | 7.10 | 6.43 | 6.08 | 6.79 | < 6.00 | 7.00 | 6.00 | 10 |
| CC(C)(O)C(O)CCN(c1cc2oc(-c3ccc(F)cc3)c(C3=NOCN3)c2cc1C1CC1)S(C)(=O)=O (stereo not drawn) [Example 146, N-[5-cyclopropyl-3-(4,5-dihydro-1,2,4-oxadiazol-3-yl)-2-(4-fluorophenyl)-1-benzofuran-6-yl]-N-(3,4-dihydroxy-4-methylpentyl)methanesulfonamide] | 8.31 | 7.35 | 9 | 7.60 | 7.90 | 5.78 | 7.90 | 7.90 | 5.57 | 7.75 | 7.75 | 6.75 | 6.77 | 7.77 | 6.56 | 7.95 | 6.63 | 21 |
| CS(=O)(=O)N(CCCCCO)c1cc2oc(-c3ccc(F)cc3)c(C3=NOCN3)c2cc1C1CC1 [Example 147, N-[5-cyclopropyl-3-(4,5-dihydro-1,2,4-oxadiazol-3-yl)-2-(4-fluorophenyl)-1-benzofuran-6-yl]-N-(5-hydroxypentyl)methanesulfonamide] | 8.46 | 7.31 | 14 | 8.05 | 8.05 | 5.77 | 8.05 | 8.05 | 5.74 | 8.01 | 8.01 | 7.07 | 7.21 | 7.99 | 7.18 | 8.01 | 7.11 | 8 |
| CS(=O)(=O)CCCCN(c1cc2oc(-c3ccc(F)cc3)c(C3=NOCN3)c2cc1C1CC1)S(C)(=O)=O [Example 148, N-[5-cyclopropyl-3-(4,5-dihydro-1,2,4-oxadiazol-3-yl)-2-(4-fluorophenyl)-1-benzofuran-6-yl]-N-[4-(methylsulfonyl)butyl]methanesulfonamide] | 8.41 | 7.52 | 8 | 8.22 | 8.39 | 5.89 | 8.39 | 8.39 | 6.16 | 8.40 | 8.40 | 7.34 | 7.49 | 8.09 | 7.40 | 8.28 | 6.96 | 21 |
| CS(=O)(=O)N(CCC1CCS(=O)(=O)C1)c1cc2oc(-c3ccc(F)cc3)c(C3=NOCN3)c2cc1C1CC1 (stereo not drawn) [Example 149, N-[5-cyclopropyl-3-(4,5-dihydro-1,2,4-oxadiazol-3-yl)-2-(4-fluorophenyl)-1-benzofuran-6-yl]-N-[2-(1,1-dioxidotetrahydrothiophen-3-yl)ethyl]methanesulfonamide] | 8.46 | 7.39 | 12 | 8.05 | 8.06 | 5.99 | 8.06 | 8.06 | 6.19 | 8.40 | 8.40 | 7.27 | 7.47 | 8.15 | 7.68 | 8.14 | 6.91 | 17 |
| CC(C)CCN(c1cc2oc(-c3ccc(F)cc3)c(C3=NOCN3)c2cc1C1CC1)S(C)(=O)=O [Example 156, N-[5-cyclopropyl-3-(4,5-dihydro-1,2,4-oxadiazol-3-yl)-2-(4-fluorophenyl)-1-benzofuran-6-yl]-N-(3-methylbutyl)methanesulfonamide] | 8.20 | 7.47 | 5 | 7.57 | 7.38 | 5.64 | 7.38 | 7.38 | 5.53 | 7.15 | 7.15 | 6.14 | 6.05 | 7.19 | 6.21 | 7.54 | 6.43 | 13 |
| CS(=O)(=O)N(CCCC(=O)O)c1cc2oc(-c3ccc(F)cc3)c(C3=NOCN3)c2cc1C1CC1 [Example 157, 4-{[5-cyclopropyl-3-(4,5-dihydro-1,2,4-oxadiazol-3-yl)-2-(4-fluorophenyl)-1-benzofuran-6-yl](methylsulfonyl)amino}butanoic acid] | 8.30 | 7.27 | 11 | 7.80 | 6.96 | 5.55 | 6.96 | 6.96 | 5.61 | 7.03 | 7.03 | 6.00 | 6.00 | 6.97 | < 6.00 | 6.95 | 5.16 | 62 |
